Columns and labels:
Assay in all cases: Test E greenhouse herbicide test, pre- and postemergence
Format in all cases: in vivo
Details in all cases: Postemergence
[1] = system: horseweed (Conyza canadensis)
From the text: (§1) Seeds of plant species selected from corn (Zea mays), soybean (Glycine max), velvetleaf (Abutilon theophrasti), lambsquarters (Chenopodium album), wild poinsettia (Euphorbia heterophylla), pigweed, palmer (palmer pigweed, Amaranthus palmeri), waterhemp (common waterhemp, Amaranthus rudis), surinam grass (Brachiaria decumbens), crabgrass, large (large crabgrass, Digitaria sanguinalis), crabgrass, Brazilian (Brazilian crabgrass, Digitaria horizontalis), panicum, fall (fall panicum, Panicum dichotomiflorum), foxtail, giant (giant foxtail, Setaria faberii), foxtail, green (green foxtail, Setaria viridis), goosegrass (Eleusine indica), johnsongrass (Sorghum halepense), ragweed (common ragweed, Ambrosia elatior), barnyardgrass (Echinochloa crus-galli), sandbur (southem sandbur, Cenchrus echinatus), arrowleaf sida (Sida rhombifolia), Italian ryegrass (Lolium multiflorum), dayflower (Virginia (VA) dayflower, Commelina virginica), field bindweed (Convolvulus arvensis), momingglory (Ipomoea coccinea), nightshade (eastern black nightshade, Solanum ptycanthum), kochia (Kochia scoparia), nutsedge, yellow (yellow nutsedge, Cyperus esculentus), horseweed (Conyza canadensis), and beggarticks (hairy beggarticks, Bidens pilosa), were planted into a silt loam soil and treated preemergence with test chemicals formulated in a non-phytotoxic solvent mixture which included a surfactant.
(§2) At the same time, plants from these crop and weed species and also waterhemp_RES1, (ALS & Triazine resistant common waterhemp, Amaranthus rudis), and waterhemp_RES2, (ALS & HPPD resistant common waterhemp, Amaranthus rudis) were planted in pots containing Redi-Earth® planting medium (Scotts Company, 14111 Scottslawn Road, Marysville, Ohio 43041) comprising spaghnum peat moss, vermiculite, wetting agent and starter nutrients were treated with postemergence applications of test chemicals formulated in the same manner. Plants ranged in height from 2 to 18 cm for postemergence treatments (1- to 4-leaf stage). Treated plants and controls were maintained in a greenhouse for 14 to 21 d, after which time all species were compared to controls and visually evaluated. Plant response ratings, summarized in Table E, are based on a scale of 0 to 100 where 0 is no effect and 100 is complete control. A dash (-) response means no test result.

soybean (Glycine max) = system: soybean (Glycine max)
From the text: as §1, §2

[2] = system: field bindweed (Convolvulus arvensis)
From the text: as §1, §2

[3] = system: dayflower (Virginia (VA) dayflower, Commelina virginica)
From the text: as §1, §2

[4] = system: crabgrass, Brazilian (Brazilian crabgrass, Digitaria horizontalis)
From the text: as §1, §2

corn (Zea mays) = system: corn (Zea mays)
From the text: as §1, §2

[5] = system: barnyardgrass (Echinochloa crus-galli)
From the text: as §1, §2

[6] = system: pigweed, palmer (palmer pigweed, Amaranthus palmeri)
From the text: as §1, §2

[7] = system: panicum, fall (fall panicum, Panicum dichotomiflorum)
From the text: as §1, §2

[8] = system: ragweed (common ragweed, Ambrosia elatior)
From the text: as §1, §2

[9] = system: arrowleaf sida (Sida rhombifolia)
From the text: as §1, §2

[10] = 62 g ai/ha, scale 0 to 100 (0 no effect, 100 complete control)
[11] = 125 g ai/ha, scale 0 to 100 (0 no effect, 100 complete control)
[12] = 250 g ai/ha, scale 0 to 100 (0 no effect, 100 complete control)
[13] = 31 g ai/ha, visual, scale 0 no effect to 100 complete control
[14] = 16 g ai/ha, visual, scale 0 no effect to 100 complete control

CCC(=O)Oc1c(C)nn(C)c(=O)c1-c1c(C)sc2ccc(C)cc12 [Compound 42]
Plant response rating, Horseweed [1, 10]: 75 | Plant response rating, Horseweed [1, 11]: 75 | Plant response rating, Horseweed [1, 12]: 85 | Plant response rating, Horseweed [1, 13]: 75 | Plant response rating, Soybean (soybean (Glycine max); [10]): 20 | Plant response rating, Soybean (soybean (Glycine max); [11]): 30 | Plant response rating, Soybean (soybean (Glycine max); [12]): 50 | Plant response rating, Soybean (soybean (Glycine max); [13]): 10 | Plant response rating, Field Bindweed [2, 10]: 85 | Plant response rating, Field Bindweed [2, 11]: 90 | Plant response rating, Field Bindweed [2, 12]: 90 | Plant response rating, Field Bindweed [2, 13]: 90 | Plant response rating, Dayflower, VA [3, 10]: 50 | Plant response rating, Dayflower, VA [3, 11]: 60 | Plant response rating, Dayflower, VA [3, 12]: 70 | Plant response rating, Dayflower, VA [3, 13]: 30 | Plant response rating, Crabgrass, Brazil [4, 10]: 35 | Plant response rating, Crabgrass, Brazil [4, 11]: 40 | Plant response rating, Crabgrass, Brazil [4, 12]: 50 | Plant response rating, Crabgrass, Brazil [4, 13]: 20 | Plant response rating, Corn (corn (Zea mays); [10]): 15 | Plant response rating, Corn (corn (Zea mays); [11]): 15 | Plant response rating, Corn (corn (Zea mays); [12]): 20 | Plant response rating, Corn (corn (Zea mays); [13]): 10 | Plant response rating, Barnyardgrass [5, 10]: 30 | Plant response rating, Barnyardgrass [5, 11]: 30 | Plant response rating, Barnyardgrass [5, 12]: 35 | Plant response rating, Barnyardgrass [5, 13]: 20 | Plant response rating, Pigweed, Palmer [6, 10]: 75 | Plant response rating, Pigweed, Palmer [6, 11]: 60 | Plant response rating, Pigweed, Palmer [6, 12]: 95 | Plant response rating, Pigweed, Palmer [6, 13]: 70 | Plant response rating, Panicum, Fall [7, 10]: 50 | Plant response rating, Panicum, Fall [7, 11]: 80 | Plant response rating, Panicum, Fall [7, 12]: 95 | Plant response rating, Panicum, Fall [7, 13]: 60 | Plant response rating, Ragweed [8, 10]: 85 | Plant response rating, Ragweed [8, 11]: 95 | Plant response rating, Ragweed [8, 12]: 90 | Plant response rating, Ragweed [8, 13]: 90 | Plant response rating, Arrowleaf Sida [9, 10]: 60 | Plant response rating, Arrowleaf Sida [9, 11]: 70 | Plant response rating, Arrowleaf Sida [9, 12]: 80 | Plant response rating, Arrowleaf Sida [9, 13]: 20

CC(=O)Oc1c(C)nn(C)c(=O)c1-c1ccc(F)c2ccccc12 [Compound 90]
Plant response rating, Horseweed [1, 10]: 75 | Plant response rating, Horseweed [1, 11]: 70 | Plant response rating, Horseweed [1, 14]: 50 | Plant response rating, Horseweed [1, 13]: 70 | Plant response rating, Soybean (soybean (Glycine max); [11]): 60 | Plant response rating, Soybean (soybean (Glycine max); [14]): 20 | Plant response rating, Soybean (soybean (Glycine max); [13]): 30 | Plant response rating, Field Bindweed [2, 10]: 90 | Plant response rating, Field Bindweed [2, 11]: 100 | Plant response rating, Field Bindweed [2, 14]: 60 | Plant response rating, Field Bindweed [2, 13]: 80 | Plant response rating, Dayflower, VA [3, 10]: 80 | Plant response rating, Dayflower, VA [3, 11]: 90 | Plant response rating, Dayflower, VA [3, 14]: 40 | Plant response rating, Dayflower, VA [3, 13]: 60 | Plant response rating, Crabgrass, Brazil [4, 10]: 50 | Plant response rating, Crabgrass, Brazil [4, 11]: 70 | Plant response rating, Crabgrass, Brazil [4, 14]: 50 | Plant response rating, Crabgrass, Brazil [4, 13]: 55 | Plant response rating, Corn (corn (Zea mays); [10]): 5 | Plant response rating, Corn (corn (Zea mays); [11]): 0 | Plant response rating, Corn (corn (Zea mays); [14]): 5 | Plant response rating, Corn (corn (Zea mays); [13]): 0 | Plant response rating, Barnyardgrass [5, 10]: 40 | Plant response rating, Barnyardgrass [5, 11]: 50 | Plant response rating, Barnyardgrass [5, 14]: 30 | Plant response rating, Barnyardgrass [5, 13]: 30 | Plant response rating, Pigweed, Palmer [6, 10]: 50 | Plant response rating, Pigweed, Palmer [6, 11]: 60 | Plant response rating, Pigweed, Palmer [6, 14]: 40 | Plant response rating, Pigweed, Palmer [6, 13]: 65 | Plant response rating, Panicum, Fall [7, 10]: 60 | Plant response rating, Panicum, Fall [7, 11]: 70 | Plant response rating, Panicum, Fall [7, 14]: 40 | Plant response rating, Panicum, Fall [7, 13]: 60 | Plant response rating, Ragweed [8, 10]: 80 | Plant response rating, Ragweed [8, 11]: 90 | Plant response rating, Ragweed [8, 14]: 50 | Plant response rating, Ragweed [8, 13]: 75 | Plant response rating, Arrowleaf Sida [9, 10]: 90 | Plant response rating, Arrowleaf Sida [9, 11]: 90 | Plant response rating, Arrowleaf Sida [9, 14]: 70 | Plant response rating, Arrowleaf Sida [9, 13]: 80

COc1nn(C)c(=O)c(-c2c(C)sc3ccc(Cl)cc23)c1O [Compound 100]
Plant response rating, Horseweed [1, 10]: 70 | Plant response rating, Horseweed [1, 11]: 75 | Plant response rating, Horseweed [1, 12]: 80 | Plant response rating, Horseweed [1, 13]: 35 | Plant response rating, Soybean (soybean (Glycine max); [11]): 0 | Plant response rating, Soybean (soybean (Glycine max); [12]): 0 | Plant response rating, Soybean (soybean (Glycine max); [13]): 0 | Plant response rating, Field Bindweed [2, 10]: 80 | Plant response rating, Field Bindweed [2, 11]: 90 | Plant response rating, Field Bindweed [2, 12]: 95 | Plant response rating, Field Bindweed [2, 13]: 75 | Plant response rating, Dayflower, VA [3, 10]: 0 | Plant response rating, Dayflower, VA [3, 11]: 0 | Plant response rating, Dayflower, VA [3, 12]: 0 | Plant response rating, Dayflower, VA [3, 13]: 0 | Plant response rating, Crabgrass, Brazil [4, 10]: 50 | Plant response rating, Crabgrass, Brazil [4, 11]: 40 | Plant response rating, Crabgrass, Brazil [4, 12]: 50 | Plant response rating, Crabgrass, Brazil [4, 13]: 25 | Plant response rating, Corn (corn (Zea mays); [10]): 5 | Plant response rating, Corn (corn (Zea mays); [11]): 0 | Plant response rating, Corn (corn (Zea mays); [12]): 0 | Plant response rating, Corn (corn (Zea mays); [13]): 0 | Plant response rating, Barnyardgrass [5, 10]: 40 | Plant response rating, Barnyardgrass [5, 11]: 30 | Plant response rating, Barnyardgrass [5, 12]: 50 | Plant response rating, Barnyardgrass [5, 13]: 30 | Plant response rating, Pigweed, Palmer [6, 10]: 30 | Plant response rating, Pigweed, Palmer [6, 11]: 40 | Plant response rating, Pigweed, Palmer [6, 12]: 50 | Plant response rating, Pigweed, Palmer [6, 13]: 20 | Plant response rating, Panicum, Fall [7, 10]: 50 | Plant response rating, Panicum, Fall [7, 11]: 70 | Plant response rating, Panicum, Fall [7, 12]: 80 | Plant response rating, Panicum, Fall [7, 13]: 30 | Plant response rating, Ragweed [8, 10]: 85 | Plant response rating, Ragweed [8, 11]: 90 | Plant response rating, Ragweed [8, 12]: 90 | Plant response rating, Ragweed [8, 13]: 75 | Plant response rating, Arrowleaf Sida [9, 10]: 60 | Plant response rating, Arrowleaf Sida [9, 11]: 70 | Plant response rating, Arrowleaf Sida [9, 12]: 75 | Plant response rating, Arrowleaf Sida [9, 13]: 50

CSCC(=O)Oc1c(C)nn(C)c(=O)c1-c1cccc2ccccc12 [Compound 171]
Plant response rating, Horseweed [1, 10]: 60 | Plant response rating, Horseweed [1, 11]: 70 | Plant response rating, Horseweed [1, 12]: 60 | Plant response rating, Horseweed [1, 13]: 50 | Plant response rating, Soybean (soybean (Glycine max); [11]): 50 | Plant response rating, Soybean (soybean (Glycine max); [12]): 70 | Plant response rating, Soybean (soybean (Glycine max); [13]): 40 | Plant response rating, Field Bindweed [2, 10]: 85 | Plant response rating, Field Bindweed [2, 11]: 100 | Plant response rating, Field Bindweed [2, 12]: 100 | Plant response rating, Field Bindweed [2, 13]: 70 | Plant response rating, Dayflower, VA [3, 10]: 50 | Plant response rating, Dayflower, VA [3, 11]: 70 | Plant response rating, Dayflower, VA [3, 12]: 90 | Plant response rating, Dayflower, VA [3, 13]: 40 | Plant response rating, Crabgrass, Brazil [4, 10]: 50 | Plant response rating, Crabgrass, Brazil [4, 11]: 50 | Plant response rating, Crabgrass, Brazil [4, 12]: 60 | Plant response rating, Crabgrass, Brazil [4, 13]: 40 | Plant response rating, Corn (corn (Zea mays); [10]): 0 | Plant response rating, Corn (corn (Zea mays); [11]): 0 | Plant response rating, Corn (corn (Zea mays); [12]): 0 | Plant response rating, Corn (corn (Zea mays); [13]): 0 | Plant response rating, Barnyardgrass [5, 10]: 45 | Plant response rating, Barnyardgrass [5, 11]: 50 | Plant response rating, Barnyardgrass [5, 12]: 50 | Plant response rating, Barnyardgrass [5, 13]: 40 | Plant response rating, Pigweed, Palmer [6, 10]: 50 | Plant response rating, Pigweed, Palmer [6, 11]: 60 | Plant response rating, Pigweed, Palmer [6, 12]: 70 | Plant response rating, Pigweed, Palmer [6, 13]: 50 | Plant response rating, Panicum, Fall [7, 10]: 50 | Plant response rating, Panicum, Fall [7, 11]: 60 | Plant response rating, Panicum, Fall [7, 12]: 75 | Plant response rating, Panicum, Fall [7, 13]: 40 | Plant response rating, Ragweed [8, 10]: 75 | Plant response rating, Ragweed [8, 11]: 90 | Plant response rating, Ragweed [8, 12]: 98 | Plant response rating, Ragweed [8, 13]: 60 | Plant response rating, Arrowleaf Sida [9, 10]: 80 | Plant response rating, Arrowleaf Sida [9, 11]: 90 | Plant response rating, Arrowleaf Sida [9, 12]: 95 | Plant response rating, Arrowleaf Sida [9, 13]: 80
